Series [1] addresses T1, airway epithelial sodium currents (sodium channel) (UniProt A0A8I3MKE6+A0A8I3Q679+Q95165).
T1 sequence (A0A8I3MKE6 1-646): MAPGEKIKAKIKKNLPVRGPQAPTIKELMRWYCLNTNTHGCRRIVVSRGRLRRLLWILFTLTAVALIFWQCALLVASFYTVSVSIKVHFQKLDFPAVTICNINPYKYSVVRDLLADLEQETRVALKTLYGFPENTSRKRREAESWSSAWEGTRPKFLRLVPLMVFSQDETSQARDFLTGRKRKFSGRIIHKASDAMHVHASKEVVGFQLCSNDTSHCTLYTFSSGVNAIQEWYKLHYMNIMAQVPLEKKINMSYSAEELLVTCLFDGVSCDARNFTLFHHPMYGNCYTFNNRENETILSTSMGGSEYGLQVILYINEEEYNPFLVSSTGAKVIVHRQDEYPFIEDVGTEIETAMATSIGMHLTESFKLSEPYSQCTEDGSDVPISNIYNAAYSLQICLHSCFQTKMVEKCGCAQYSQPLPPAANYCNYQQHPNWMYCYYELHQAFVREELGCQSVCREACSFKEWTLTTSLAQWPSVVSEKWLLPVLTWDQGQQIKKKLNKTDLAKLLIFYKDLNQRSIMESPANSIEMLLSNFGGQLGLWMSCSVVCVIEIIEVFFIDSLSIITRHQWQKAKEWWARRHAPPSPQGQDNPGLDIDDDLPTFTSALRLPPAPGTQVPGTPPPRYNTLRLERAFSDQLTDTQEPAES
T1 sequence (A0A8I3Q679 1-649): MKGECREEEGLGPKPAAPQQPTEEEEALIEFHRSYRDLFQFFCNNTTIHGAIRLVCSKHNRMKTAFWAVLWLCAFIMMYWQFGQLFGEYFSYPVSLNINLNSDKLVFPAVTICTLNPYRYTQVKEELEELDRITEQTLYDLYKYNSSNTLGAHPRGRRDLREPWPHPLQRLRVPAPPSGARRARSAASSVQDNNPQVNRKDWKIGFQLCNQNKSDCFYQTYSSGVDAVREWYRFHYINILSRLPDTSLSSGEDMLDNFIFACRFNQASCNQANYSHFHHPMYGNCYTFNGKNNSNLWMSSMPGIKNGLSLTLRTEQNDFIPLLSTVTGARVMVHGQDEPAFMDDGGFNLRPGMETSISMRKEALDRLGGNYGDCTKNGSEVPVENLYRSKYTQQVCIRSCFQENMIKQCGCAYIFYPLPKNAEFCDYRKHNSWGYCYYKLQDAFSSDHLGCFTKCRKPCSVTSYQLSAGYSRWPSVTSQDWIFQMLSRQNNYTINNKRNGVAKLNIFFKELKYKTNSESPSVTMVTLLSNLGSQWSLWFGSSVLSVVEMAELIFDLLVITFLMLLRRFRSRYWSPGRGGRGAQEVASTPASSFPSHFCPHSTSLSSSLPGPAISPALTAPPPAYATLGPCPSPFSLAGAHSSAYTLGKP
T1 sequence (Q95165 1-641): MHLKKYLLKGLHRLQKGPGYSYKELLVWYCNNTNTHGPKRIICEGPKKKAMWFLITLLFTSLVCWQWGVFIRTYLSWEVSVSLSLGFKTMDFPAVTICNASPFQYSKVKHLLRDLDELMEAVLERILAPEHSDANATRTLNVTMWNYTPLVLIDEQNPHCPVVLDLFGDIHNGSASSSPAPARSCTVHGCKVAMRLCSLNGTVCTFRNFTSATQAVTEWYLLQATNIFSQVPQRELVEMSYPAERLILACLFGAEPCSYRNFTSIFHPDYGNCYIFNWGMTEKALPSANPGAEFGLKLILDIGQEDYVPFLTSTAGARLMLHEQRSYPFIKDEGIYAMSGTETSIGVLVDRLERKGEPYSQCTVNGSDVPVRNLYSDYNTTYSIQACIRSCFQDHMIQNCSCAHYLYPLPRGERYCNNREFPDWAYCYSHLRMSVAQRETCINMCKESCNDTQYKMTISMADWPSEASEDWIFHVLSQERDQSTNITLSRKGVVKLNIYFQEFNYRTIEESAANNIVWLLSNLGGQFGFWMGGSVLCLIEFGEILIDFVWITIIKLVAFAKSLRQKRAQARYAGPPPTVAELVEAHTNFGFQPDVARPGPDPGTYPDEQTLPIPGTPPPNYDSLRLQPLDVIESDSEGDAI
The series is described as follows: Sodium channel blocking activity: inhibition of short circuit current (ISC) in airway epithelial monolayers mounted in Ussing chambers. The class given is cell-based, human, dog, sheep or rodent. The conditions noted are these: for Fold Amiloride** (PSA 4022 = 100): relative potency for PSA 4022 = 100 using EC50 from PSA 4022 in same run; for EC50: Selected Alaphatic Pyrazinoylguanidines (Formula II), mean ± spread, read-out: EC50. The procedure: In Vitro Measure of Sodium Channel Blocking Activity and Reversibility
One assay used to assess mechanism of action and/or potency of the compounds of the present invention involves the determination of lumenal drug inhibition of airway epithelial sodium currents measured under short circuit current (ISC) using airway epithelial monolayers mounted in Ussing chambers. Cells obtained from freshly excised human, dog, sheep or rodent airways are seeded onto porous 0.4 micron Snapwell™ Inserts (CoStar), cultured at air-liquid interface (ALI) conditions in hormonally defined media, and assayed for sodium transport activity (ISC) while bathed in Krebs Bicarbonate Ringer (KBR) in Using chambers. All test drug additions are to the lumenal bath with half-log dose addition protocols (from 1×10^−11 M to 3×10^−5 M), and the cumulative change in ISC (inhibition) recorded. All drugs are prepared in dimethyl sulfoxide as stock solutions at a concentration of 1×10^−2 M and stored at −20° C. Eight preparations are typically run in parallel; two preparations per run incorporate amiloride and/or benzamil as positive controls. After the maximal concentration (5×10^−5 M) is administered, the lumenal bath is exchanged three times with fresh drug-free KBR solution, and the resultant ISC measured after each wash for approximately 5 minutes in duration. Reversibility is defined as the percent return to the baseline value for sodium current after the third wash. All data from the voltage clamps are collected via a computer interface and analyzed off-line.
Dose-effect relationships for all compounds are considered and analyzed by the Prism 3.0 program. IC50 values, maximal effective concentrations, and reversibility are calculated and compared to amiloride and benzamil as positive controls.

On to `N=C(NCCCCc1ccc(OCC(O)COCC(O)CO)cc1)NC(=O)c1nc(Cl)c(N)nc1N` (centres unmarked) [compound 15143, N-(3,5-diamino-6-chloropyrazine-2-carbonyl)-N′-(4-{4-[3-(2,3-dihydroxypropoxy)-2-hydroxypropoxy]phenyl}butyl)guanidine], for which the melting point was 73 to 82 °C (dec.). Besides, in series [1] (Capped Pyrazinoylguanidines), the “Fold Amiloride** (PSA 4022 = 100)” value was found to be 107 ± 11.

The molecule `N#CCOc1ccc(CCCCNC(=N)NC(=O)c2nc(Cl)c(N)nc2N)cc1` [compound 16208, N-[4-(4-cyanomethoxyphenyl)butyl]-N′-(3,5-diamino-6-chloro-pyrazine-2-carbonyl)guanidine] gave a melting point of 129 to 132 °C. Further, in series [1] (Capped Pyrazinoylguanidines), the “Fold Amiloride** (PSA 4022 = 100)” value was 52 ± 21.

`N=C(NCCCCc1ccc(OCC(=O)Nc2ccccc2)cc1)NC(=O)c1nc(Cl)c(N)nc1N` [compound 17482, 2-(4-{4-[N′-(3,5-diamino-6-chloropyrazine-2-carbonyl)guanidino]-butyl}phenoxy)-N-phenylacetamide] came in with a melting point of 168 to 170 °C. In addition, the “Fold Amiloride** (PSA 4022 = 100)” value in series [1] (Capped Pyrazinoylguanidines) was 39 ± 6.

`CN(C)C(=S)Oc1ccc(CCCCNC(=N)NC(=O)c2nc(Cl)c(N)nc2N)cc1` [compound 17846, dimethylthiocarbamic acid O-(4-{4-[N′-(3,5-diamino-6-chloropyrazine-2-carbonyl)guanidino]butyl}phenyl) ester]: the melting point lay in the range of 102 to 105 °C. Also, the “Fold Amiloride** (PSA 4022 = 100)” value in series [1] (Capped Pyrazinoylguanidines) was determined as 104 ± 49.

On to `Cl.N=C(NCCCCc1ccc(OCCCc2nnn[nH]2)cc1)NC(=O)c1nc(Cl)c(N)nc1N` [compound 17926, N-(3,5-diamino-6-chloropyrazine-2-carbonyl)-N′-(4-{4-[3-(1H-tetrazol-5-yl)propoxy]phenyl}butyl)guanidine hydrochloride], for which the melting point was 125 to 127 °C (dec.). Moreover, in series [1] (Capped Pyrazinoylguanidines), the “Fold Amiloride** (PSA 4022 = 100)” value turned out to be 29 ± 12.

For the molecule `N=C(NCCCCCCCN)NC(=O)c1nc(Cl)c(N)nc1N` [compound 18705, N-(7-aminoheptyl)-N′-(3,5-diamino-6-chloropyrazine-2-carbonyl)guanidine], the melting point was 185 to 187 °C (dec.). In addition, the “Fold Amiloride** (PSA 4022 = 100)” value in series [1] (Alaphatic Pyrazinoylguanidines) is listed as 8 ± 2. Besides, in series [1], the EC50 is 99 ± 31 nM.

On to `CC(C)[C@H](NS(=O)(=O)c1ccc(CCCCNC(=N)NC(=O)c2nc(Cl)c(N)nc2N)cc1)C(N)=O.Cl` [compound 19008, (2S)-(4-{4-[N′-(3,5-diamino-6-chloropyrazine-2-carbonyl)guanidino]-butyl}benzenesulfonylamino)-3-methylbutyramide], for which the melting point was 154 to 156 °C (dec.). In addition, in series [1] (Capped Pyrazinoylguanidines), the “Fold Amiloride** (PSA 4022 = 100)” value is 54 ± 6.

With `CC(C)(C)OC(=O)NCCCCCCCCNC(=N)NC(=O)c1nc(Cl)c(N)nc1N` [compound 19156, {8-[N′-(3,5-diamino-6-chloropyrazine-2-carbonyl)guanidino]octyl}carbamic acid tert-butyl ester], the melting point was 189 to 191 °C. For the same molecule, in series [1] (Alaphatic Pyrazinoylguanidines), the “Fold Amiloride** (PSA 4022 = 100)” value is recorded as 18 ± 2. Moreover, in series [1], the concentration giving a half-maximal response (EC50) was 46 ± 20 nM.

Take `CC(C)(C)OC(=O)NCCCOCCCNC(=N)NC(=O)c1nc(Cl)c(N)nc1N` [compound 19333]: the melting point was 62 to 65 °C (dec.). Further, the “Fold Amiloride** (PSA 4022 = 100)” value in series [1] (Alaphatic Pyrazinoylguanidines) turned out to be 7 ± 2. Besides, the EC50 in series [1] amounted to 81 ± 8 nM.

In turn, `CC(C)(C)OC(=O)NCCCCCCCCCNC(=N)NC(=O)c1nc(Cl)c(N)nc1N` [compound 19484, {9-[N′-(3,5-diamino-6-chloropyrazine-2-carbonyl)guanidino]nonyl}-carbamic acid tert-butyl ester] showed a melting point of 187 to 189 °C. Also, in series [1] (Alaphatic Pyrazinoylguanidines), the “Fold Amiloride** (PSA 4022 = 100)” value stood at 12. Further, the EC50 in series [1] is 66 nM.

On to `N=C(NCCCCc1ccc(OCCCc2ncc[nH]2)cc1)NC(=O)c1nc(Cl)c(N)nc1N` [compound 23022, N-(3,5-diamino-6-chloropyrazine-2-carbonyl)-N′-(4-{4-[3-(1H-imidazol-2-yl)propoxy]phenyl}butyl)guanidine], for which the melting point was 123 to 126 °C (dec.). Moreover, the “Fold Amiloride** (PSA 4022 = 100)” value in series [1] (Capped Pyrazinoylguanidines) came out at 79 ± 15.

The molecule `CC(C)(C)OC(=O)NCCCCCCCCCCCCNC(=N)NC(=O)c1nc(Cl)c(N)nc1N` [compound 23776, {12-[N′-(3,5-diamino-6-chloropyrazine-2-carbonyl)guanidino]dodecyl}-carbamic acid tert-butyl ester] gave a melting point of 154 to 156 °C. For the same molecule, in series [1] (Alaphatic Pyrazinoylguanidines), the “Fold Amiloride** (PSA 4022 = 100)” value amounted to 7. Further, the EC50 in series [1] stood at 75 nM.

As a reminder, the melting point is the temperature of the solid-liquid transition. The term EC50 denotes the concentration at which the effect is half-maximal.

The values are drawn from US20050090505A1, “Methods of reducing risk of infection from pathogens” (priority 2003, published 2005).
